One assay addresses T1, c-kit (Homo sapiens, UniProt P10721).
T1 construct: human Mo7e cells which endogenously express c-kit; endogenous in cells; host or cells: human Mo7e cells (promegakaryocytic leukemia line), stimulated with human recombinant SCF
The assay can be described thus: Mo7e cell proliferation assay (SCF dependent proliferation). Format: cell-based. The following applies: Table 1; human Mo7e cells stimulated with SCF, 48 hours, CellTiter Glo; 1% FBS; read-out: c-kit (Mo7e). The procedure, abridged:
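Human Mo7e cells with endogenous c-kit, proliferation driven by SCF, 384-well format. After 48 h at 37 °C viability read by CellTiter-Glo luminescence. IC50 taken as concentration giving response halfway between baseline and maximum.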
A general note: In ATP-based viability assays light output follows the ATP content of the culture.
T1 sequence (P10721 26-976): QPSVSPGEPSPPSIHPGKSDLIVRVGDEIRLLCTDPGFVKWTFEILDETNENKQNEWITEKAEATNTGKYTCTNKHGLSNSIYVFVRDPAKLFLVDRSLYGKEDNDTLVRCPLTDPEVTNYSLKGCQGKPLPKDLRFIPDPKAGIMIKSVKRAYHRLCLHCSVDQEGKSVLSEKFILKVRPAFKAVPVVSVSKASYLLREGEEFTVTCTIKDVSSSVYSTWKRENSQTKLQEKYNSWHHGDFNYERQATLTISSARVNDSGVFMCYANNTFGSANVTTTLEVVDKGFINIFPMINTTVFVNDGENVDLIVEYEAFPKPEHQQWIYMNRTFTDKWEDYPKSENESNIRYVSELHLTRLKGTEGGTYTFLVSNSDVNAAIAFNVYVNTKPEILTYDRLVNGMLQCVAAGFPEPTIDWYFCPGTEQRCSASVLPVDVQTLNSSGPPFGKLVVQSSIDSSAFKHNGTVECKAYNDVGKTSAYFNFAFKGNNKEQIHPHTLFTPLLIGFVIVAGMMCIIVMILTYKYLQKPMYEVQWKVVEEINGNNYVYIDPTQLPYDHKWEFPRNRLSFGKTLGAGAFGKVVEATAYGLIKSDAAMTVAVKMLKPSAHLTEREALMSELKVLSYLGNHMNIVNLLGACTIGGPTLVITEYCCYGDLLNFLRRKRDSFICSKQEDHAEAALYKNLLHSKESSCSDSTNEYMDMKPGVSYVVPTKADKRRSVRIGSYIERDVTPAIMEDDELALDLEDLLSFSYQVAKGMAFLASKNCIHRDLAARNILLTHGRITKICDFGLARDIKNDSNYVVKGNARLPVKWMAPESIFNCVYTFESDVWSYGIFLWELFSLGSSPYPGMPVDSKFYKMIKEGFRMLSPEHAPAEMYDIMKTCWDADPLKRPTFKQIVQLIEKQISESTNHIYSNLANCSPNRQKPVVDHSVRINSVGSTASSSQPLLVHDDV
With `[2H]c1ccn2c(C(=O)Nc3cc(-c4noc(C5CN(C(=O)OC)C5)n4)ccc3C)cnc2c1` [F97, methyl 3-(3-(3-(7-deuteroimidazo[1,2-a]pyridine-3-carboxamido)-4-methylphenyl)-1,2,4-oxadiazol-5-yl)azetidine-1-carboxylate], the IC50 turned out to be 44 nM.

For `[2H]c1ccc2ncc(C(=O)Nc3cc(-c4noc(C5CN(C(=O)OC)C5)n4)ccc3C)n2c1` [F98], the IC50 was 43 nM.

As for `Cc1nc(C)c(-c2ccc3ncc(C(=O)Nc4cc(-c5noc(CN6CC(C#N)C6)n5)ccc4C)n3c2)s1` [F99], the IC50 came to 49 nM.

Still in this assay, the particulars now being: Table 2; human Mo7e cells stimulated with SCF, 48 hours, CellTiter Glo; 1% FBS; read-out: c-kit (Mo7e).
With `Cc1ccc(-c2nc(CCOC3CCN(Cc4ccccc4)CC3)no2)cc1NC(=O)c1cnc2ccccn12` [F100], the IC50 came out at 198 nM.

On to `COC(=O)N1CC(c2noc(-c3ccc(C)c(NC(=O)c4cnc5ccccn45)c3)n2)C1` [F101], for which the IC50 was found to be 332 nM.

In the case of `Cc1ccc(-c2noc(C3CCOCC3)n2)cc1NC(=O)c1cnc2ccccn12` [F102], the IC50 is 286 nM.

With `Cc1ccc(-c2noc(C3CCN(C(=O)OC(C)(C)C)CC3)n2)cc1NC(=O)c1cnc2ccccn12` [F105], the IC50 is 505 nM.

On to `Cc1ccc(-c2noc(C3CCCN3C(=O)OC(C)(C)C)n2)cc1NC(=O)c1cnc2ccccn12` (stereo not shown) [F106], for which the IC50 amounted to 935 nM.

For the compound `Cc1ccc(-c2noc(C3CCN(C(=O)OC(C)(C)C)C3)n2)cc1NC(=O)c1cnc2ccccn12` (stereo not shown) [F107], the IC50 came to 912 nM.

Take `Cc1ccc(-c2noc(C3CCCCN3)n2)cc1NC(=O)c1cnc2ccccn12` (stereo not shown) [F109]: the IC50 was 215 nM.

For `Cc1ccc(-c2noc(C3CCCCN3C)n2)cc1NC(=O)c1cnc2ccccn12` (stereo not shown) [F111], the IC50 is 243 nM.

`Cc1ccc(-c2noc(C3CCC(O)CO3)n2)cc1NC(=O)c1cnc2ccccn12` (stereo not shown) [F112]: the IC50 was found to be 227 nM.

Turning to `Cc1ccc(-c2noc(C3CN(C(=O)OC(C)(C)C)C3)n2)cc1NC(=O)c1cnc2ccccn12` [F113], the IC50 amounted to 623 nM.

With `Cc1ccc(-c2noc(C3CC[C@H](O)CO3)n2)cc1NC(=O)c1cnc2ccccn12` (stereo partly shown) [F114], the IC50 came out at 183 nM.

Take `CC(=O)N1CC(c2nc(-c3ccc(C)c(NC(=O)c4cnc5ccccn45)c3)no2)C1` [F115]: the IC50 stood at 464 nM.

As for `Cc1ccc(-c2noc([C@@H]3COCCN3C(=O)OC(C)(C)C)n2)cc1NC(=O)c1cnc2ccccn12` [F116], the IC50 amounted to 792 nM.

For `Cc1ccc(-c2noc([C@H]3COCCN3C(=O)OC(C)(C)C)n2)cc1NC(=O)c1cnc2ccccn12` [F117], the IC50 amounted to 629 nM.

`Cc1ccc(-c2noc([C@H]3COCCN3)n2)cc1NC(=O)c1cnc2ccccn12` [F118]: the IC50 was determined as 936 nM.

Regarding `Cc1ccc(-c2noc([C@@H]3CCCC(=O)N3)n2)cc1NC(=O)c1cnc2ccccn12` [F119], the IC50 is 434 nM.

With `Cc1ccc(-c2noc([C@@H]3CC(F)(F)CN3C(=O)OC(C)(C)C)n2)cc1NC(=O)c1cnc2ccccn12` [F120], the IC50 was 311 nM.

`Cc1ccc(-c2noc([C@@H]3CC(F)(F)CN3)n2)cc1NC(=O)c1cnc2ccccn12` [F121]: the IC50 amounted to 205 nM.

On to `Cc1ccc(-c2noc([C@@H]3CN(C(=O)OC(C)(C)C)CCO3)n2)cc1NC(=O)c1cnc2ccccn12` [F122], for which the IC50 was determined as 296 nM.

`Cc1ccc(-c2noc([C@@H]3CNCCO3)n2)cc1NC(=O)c1cnc2ccccn12` [F123]: the IC50 came to 527 nM.

Take `Cc1ccc(-c2noc(CCC(=O)N3CCOCC3)n2)cc1NC(=O)c1cnc2ccccn12` [F124]: the IC50 is 426 nM.

With `Cc1ccc(-c2noc(CCC(=O)N3CCC(F)(F)C3)n2)cc1NC(=O)c1cnc2ccccn12` [F125], the IC50 turned out to be 426 nM.

For the compound `Cc1ccc(-c2noc(C3CN(C(=O)OC4(C)CC4)C3)n2)cc1NC(=O)c1cnc2ccccn12` [F126], the IC50 was 891 nM.

On to `COCCOC(=O)N1CC(c2nc(-c3ccc(C)c(NC(=O)c4cnc5ccccn45)c3)no2)C1` [F127], for which the IC50 was found to be 517 nM.

Take `Cc1ccc(-c2noc(C3(C)COC3)n2)cc1NC(=O)c1cnc2ccccn12` [F128]: the IC50 amounted to 140 nM.

As to `Cc1ccc(-c2noc(CN3CC(C#N)C3)n2)cc1NC(=O)c1cnc2ccccn12` [F129], the IC50 turned out to be 310 nM.

For the compound `Cc1ccc(-c2noc(CN3CC(F)C3)n2)cc1NC(=O)c1cnc2ccccn12` [F130], the IC50 came out at 127 nM.

Regarding `Cc1ccc(-c2noc(CN3CC(O)C3)n2)cc1NC(=O)c1cnc2ccccn12` [F131], the IC50 turned out to be 738 nM.

Turning to `COC1CN(Cc2nc(-c3ccc(C)c(NC(=O)c4cnc5ccccn45)c3)no2)C1` [F132], the IC50 was found to be 283 nM.

Consider `Cc1ccc(-c2noc(C3CN(S(=O)(=O)NC(=O)OC(C)(C)C)C3)n2)cc1NC(=O)c1cnc2ccccn12` [F133], for which the IC50 worked out at 138 nM.

Take `Cc1ccc(-c2noc(C3CN(C(=O)OCCN4CCOCC4)C3)n2)cc1NC(=O)c1cnc2ccccn12` [F134]: the IC50 was 892 nM.

Take `Cc1ccc(-c2noc(C3CN(C(=O)OCCCN4CCOCC4)C3)n2)cc1NC(=O)c1cnc2ccccn12` [F135]: the IC50 is 750 nM.

Turning to `Cc1ccc(-c2noc([C@@H]3CCN3)n2)cc1NC(=O)c1cnc2ccccn12` [F136], the IC50 was 543 nM.

As to `Cc1ccc(-c2noc(COC(=O)NC3CN(C)C3)n2)cc1NC(=O)c1cnc2ccccn12` [F137], the IC50 was 792 nM.

In the case of `COC1CN(C(=O)OCc2nc(-c3ccc(C)c(NC(=O)c4cnc5ccccn45)c3)no2)C1` [F138], the IC50 amounted to 270 nM.

`Cc1ccc(-c2noc(C3(NC(=O)OC(C)(C)C)COC3)n2)cc1NC(=O)c1cnc2ccccn12` [F139]: the IC50 turned out to be 139 nM.

As to `COC(=O)NC1(c2nc(-c3ccc(C)c(NC(=O)c4cnc5ccccn45)c3)no2)COC1` [F140], the IC50 was found to be 103 nM.

For `COCC(=O)NC1(c2nc(-c3ccc(C)c(NC(=O)c4cnc5ccccn45)c3)no2)COC1` [F141], the IC50 is 700 nM.

On to `Cc1ccc(-c2noc(CN3CCOC3=O)n2)cc1NC(=O)c1cnc2ccccn12` [F142], for which the IC50 is 578 nM.

As to `Cc1ccc(-c2noc(CN3CCCC3=O)n2)cc1NC(=O)c1cnc2ccccn12` [F143], the IC50 came out at 314 nM.

As for `Cc1ccc(-c2noc(CNC(=O)CN3CCOCC3)n2)cc1NC(=O)c1cnc2ccccn12` [F144], the IC50 stood at 963 nM.

With `Cc1ccc(-c2noc(CNC(=O)CC3CCCO3)n2)cc1NC(=O)c1cnc2ccccn12` (stereo not shown) [F145], the IC50 came to 447 nM.

With `Cc1ccc(-c2noc(CNC(=O)[C@H]3CCCO3)n2)cc1NC(=O)c1cnc2ccccn12` [F146], the IC50 is 187 nM.

Regarding `Cc1ccc(-c2noc(CNC(=O)[C@@H]3CCCO3)n2)cc1NC(=O)c1cnc2ccccn12` [F147], the IC50 is 232 nM.

In the case of `Cc1ccc(-c2noc(CNC(=O)C3(C)COC3)n2)cc1NC(=O)c1cnc2ccccn12` [F148], the IC50 is 150 nM.

As to `Cc1ccc(-c2noc(CNC(=O)C3CCOCC3)n2)cc1NC(=O)c1cnc2ccccn12` [F149], the IC50 came to 684 nM.

For the compound `Cc1ccc(-c2noc(C3CN(C(=O)OCCO)C3)n2)cc1NC(=O)c1cnc2ccccn12` [F150], the IC50 was determined as 718 nM.

On to `COC(=O)N1CC[C@H]1c1nc(-c2ccc(C)c(NC(=O)c3cnc4ccccn34)c2)no1` [F151], for which the IC50 is 357 nM.

Consider `CC(=O)N1CC[C@H]1c1nc(-c2ccc(C)c(NC(=O)c3cnc4ccccn34)c2)no1` [F152], for which the IC50 was determined as 738 nM.

Consider `CC(C)(C)OC(=O)N1CC(c2nc(-c3ccc(F)c(NC(=O)c4cnc5ccccn45)c3)no2)C1` [F153], for which the IC50 was 997 nM.

Take `CS(=O)(=O)N1CC(c2nc(-c3ccc(F)c(NC(=O)c4cnc5ccccn45)c3)no2)C1` [F154]: the IC50 came to 472 nM.

`CCS(=O)(=O)N1CC(c2nc(-c3ccc(F)c(NC(=O)c4cnc5ccccn45)c3)no2)C1` [F155]: the IC50 was determined as 120 nM.

As for `CCCS(=O)(=O)N1CC(c2nc(-c3ccc(F)c(NC(=O)c4cnc5ccccn45)c3)no2)C1` [F156], the IC50 worked out at 124 nM.

Regarding `Cc1ccc(-c2noc(C3CN(S(=O)(=O)c4cccnc4)C3)n2)cc1NC(=O)c1cnc2ccccn12` [F157], the IC50 was determined as 153 nM.

Regarding `Cc1ccc(-c2noc(C3CN(S(=O)(=O)c4ccn(C)n4)C3)n2)cc1NC(=O)c1cnc2ccccn12` [F158], the IC50 worked out at 527 nM.

For the compound `Cc1ccc(-c2noc(C3CN(S(=O)(=O)C4CCOC4)C3)n2)cc1NC(=O)c1cnc2ccccn12` (stereo not shown) [F159], the IC50 came out at 157 nM.

As for `Cc1ccc(-c2noc(C3CN(S(=O)(=O)C4CCOCC4)C3)n2)cc1NC(=O)c1cnc2ccccn12` [F160], the IC50 is 380 nM.

As for `COC(=O)CCS(=O)(=O)N1CC(c2nc(-c3ccc(C)c(NC(=O)c4cnc5ccccn45)c3)no2)C1` [F161], the IC50 worked out at 145 nM.

As to `Cc1ccc(-c2noc(C3CN(S(=O)(=O)C4CCN(C(=O)OC(C)(C)C)C4)C3)n2)cc1NC(=O)c1cnc2ccccn12` (stereo not shown) [F162], the IC50 stood at 249 nM.

Consider `Cc1ccc(-c2noc(C3CN(S(=O)(=O)C4CCN(C(=O)OC(C)(C)C)CC4)C3)n2)cc1NC(=O)c1cnc2ccccn12` [F163], for which the IC50 turned out to be 185 nM.

For `COC(=O)N1CCOC[C@H]1c1nc(-c2ccc(C)c(NC(=O)c3cnc4ccccn34)c2)no1` [F164], the IC50 is 269 nM.

In the case of `Cc1ccc(-c2noc([C@@H]3COCCN3S(C)(=O)=O)n2)cc1NC(=O)c1cnc2ccccn12` [F165], the IC50 stood at 362 nM.

On to `COC(=O)N1CCOC[C@@H]1c1nc(-c2ccc(C)c(NC(=O)c3cnc4ccccn34)c2)no1` [F166], for which the IC50 came out at 163 nM.

Regarding `Cc1ccc(-c2noc([C@H]3COCCN3S(C)(=O)=O)n2)cc1NC(=O)c1cnc2ccccn12` [F167], the IC50 was 102 nM.

Staying with this assay, now noted: Table 2; values marked *: 20% FBS instead of 1% FBS; read-out: c-kit (Mo7e).
Regarding `Cc1ccc(-c2noc([C@H]3CCCO3)n2)cc1NC(=O)c1cnc2ccccn12` [F103], the IC50 is 229 nM.

In the case of `Cc1ccc(-c2noc([C@@H]3CCCO3)n2)cc1NC(=O)c1cnc2ccccn12` [F104], the IC50 came to 224 nM.

With `Cc1ccc(-c2noc(C3CCCCN3S(C)(=O)=O)n2)cc1NC(=O)c1cnc2ccccn12` (stereo not shown) [F110], the IC50 amounted to 227 nM.

These data come from US8754071B2 (priority 2011, dated 2014).
